Source: PubChem BioAssay (NCI)
Values joined by “and” are separate entries in the source; they are usually repeats but may differ in a detail not shown here. Equal entries are not always repeated.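 How tested: cells in 96-well plates exposed to compound for 48 hours at five concentrations. GI50: concentration for 50% inhibition of growth. TGI: concentration producing complete growth inhibition.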 *1 amine or outer side, *2 acyl side, *3 side chain or, on linkers, in order; H or OH if unused. Where a SMILES comes first, the peptide text is derived from it. [ ]: non-standard residue; d: D form. X56 = CC[C@H](C)[C@H](OC(=O)[C@@H](C)[C@@H](CC)N[*:1])C(=O)[*:2]; X32 = C[C@H](N[*:1])C(=O)C(C)(C)C(=O)[*:2]; NMeY = CN[C@@H](Cc1ccc(O)cc1)C(=O)O; NMeL = CN[C@@H](CC(C)C)C(=O)O; NMeV = CN[C@H](C(=O)O)C(C)C

What was measured:
Assay in all cases: growth of human tumour cells (NCI), 48 h
[1] = tested on: M14 melanoma
[2] = tested on: NCI-H23 lung
[3] = tested on: SN12C renal
[4] = tested on: RXF 393 renal
[5] = tested on: CAKI-1 renal
[6] = tested on: U251 CNS
[7] = tested on: OVCAR-5 ovarian
[8] = tested on: HCT-15 colon
[9] = tested on: SNB-19 CNS
[10] = tested on: T-47D breast

Row | SMILES | TGI [1] | TGI [2] [µM] | TGI [3] | TGI [4] | TGI [5] | TGI [6] | TGI [7] [µM] | TGI [8] [µM] | TGI [9] | GI50 [1] [µM] | GI50 [2] [µM] | GI50 [3] [µM] | GI50 [4] [µM] | GI50 [5] [µM] | GI50 [6] [µM] | GI50 [7] [µM] | GI50 [8] [µM] | GI50 [9] [µM] | GI50 [10] [µM] | TGI [10] [µM]
1 | S=c1nc(N2CCCCC2)ss1 | 47.7 µM | > 100 | 40.9 µM | 33.4 µM | > 100 µM | 38 µM | > 100 | 62.6 | 84.9 µM | – | – | – | – | – | – | – | – | – | – | –
2 | CC(=O)/C=C/c1ccc(C)cc1 | > 100 µM | > 100 | > 100 µM | > 100 µM | > 100 µM | > 100 µM | > 100 | > 100 | > 100 µM | – | – | – | – | – | – | – | – | – | – | –
3 | Cc1ccc(Sc2sc(-c3ccccc3)nc2[P+](c2ccccc2)(c2ccccc2)c2ccccc2)cc1 | 1.3 µM | 0.811 | 1.1 µM | 1.38 µM | 1.04 µM | 1.4 µM | 1.45 | 1.14 | 1.33 µM | 0.326 | 0.27 | 0.323 | 0.331 | 0.329 | 0.214 | 0.4 | 0.3 | 0.33 | – | –
4 | COc1ccc(N(C)c2c3ccccc3nc3[nH]c4ccccc4c23)cc1 | 1.67 µM | 2.04 | 1.53 µM | 22.3 µM | 3.07 µM | 2.39 µM | 4.57 | 9.3 | 5.62 µM | 0.837 | 0.702 | 0.392 | 5.4 | 0.774 | 0.525 | 0.917 | 2.29 | 0.634 | 0.986 | 2.61
5 | COc1ccccc1/C=C/C(=O)/C=C/c1ccccc1OC | 3.68 µM | 3.92 | 5.21 µM | 3.06 µM | 7.94 µM | 3.24 µM | 6.47 | 10.5 | 4.1 µM | 1.65 | 1.75 | 2.06 | 1.6 | 3.16 | 1.55 | 3.16 | 2.27 | 1.84 | 1.47 | 8.4
6 | CCOC(=O)Nc1nc2c(C)cccc2s1 | > 100 µM | > 100 | > 100 µM | > 100 µM | > 100 µM | > 100 µM | > 100 | > 100 | > 100 µM | 53 | 38.8 | 44.7 | > 100 | 45.7 | 77.5 | 66.8 | 44.3 | > 100 | 47.4 | > 100
7 | Cc1cc(N(CCCl)CCCl)ccc1/C=N/NC(=O)Cc1cc(=O)oc2cc(O)ccc12 | 35.1 µM | 58.6 | 38.2 µM | 44.3 µM | 26.3 µM | 43.4 µM | 93.7 | > 100 | 41 µM | – | – | – | – | – | – | – | – | – | – | 56.9
8 | COc1ccc2c(c1)/C(=C/c1cc(OC)c(OC)c(OC)c1)C(=O)N2C | – | > 100 | > 44.5 µM | – | > 27.4 µM | 4.83 µM | > 100 | > 35.6 | > 27.7 µM | – | 4.42 | 3.44 | – | 2.41 | 1.94 | 5.49 | 2.12 | 3.19 | 2.59 | 6.45
9 | NC1CCC(N[C@@H]2C[C@H]2c2ccccc2)CC1 (some centres not stated) | > 100 µM | > 100 | > 100 µM | > 100 µM | > 100 µM | > 100 µM | > 100 | > 100 | > 100 µM | > 100 | > 100 | > 100 | 59.2 | 32 | > 100 | > 100 | 74.4 | > 100 | > 100 | > 100
10 | COC1=C(Br)C(=O)C2=C(C1=O)C1C3=C(C(=O)C=CC3=O)C2c2ccccc21 (configuration not stated) | 80.4 µM | 48.5 | 32.2 µM | 37.5 µM | 38.4 µM | 22.2 µM | 98.6 | 42.6 | 43.3 µM | 33.4 | 17.3 | 11 | 18.3 | 15.6 | 4.31 | 22.3 | 20 | 16.6 | 3.16 | 21.7
11 | CCOC(=O)c1cc(C(=O)c2cc(OC)c(OC)c(OC)c2)n2ccccc12 | 0.388 µM | > 100 | > 100 µM | 0.707 µM | > 100 µM | 38.6 µM | > 100 | > 100 | > 100 µM | 0.0377 | 0.34 | 1.17 | 0.07 | 0.15 | 0.0899 | 0.813 | 0.0565 | 0.206 | 1.14 | > 100
12 | NNC(=O)/C(NC(=O)c1ccccc1)=C(\N)c1ccc(Cl)cc1 | > 100 µM | > 100 | > 100 µM | > 100 µM | > 100 µM | > 100 µM | > 100 | > 100 | > 100 µM | – | – | – | – | – | – | – | – | – | – | –
13 | CC[C@H](C)[C@@H]1OC(=O)[C@@H](C)[C@@H](CC)NC(=O)[C@H](C)NC(=O)C(C)(C)C(=O)[C@H](C)NC(=O)[C@H](Cc2ccc(OC)cc2)N(C)C(=O)[C@H](C(C)C)N(C)C(=O)CNC(=O)[C@H](CC(C)C)N(C)C(=O)CNC1=O (cyclo(A[X56]G[NMeL]G[NMeV][NMeY](Me)[X32])) | 2.02 µM and 0.786 µM | 3.66 | 9.79 µM and 3.68 µM | 0.0483 µM and 0.104 µM | 0.122 µM and 0.0888 µM | 1.08 µM and 0.15 µM | > 100 | > 34.2 | 0.492 µM and 0.688 µM | 0.0403 | 0.367 | 0.0433 | 0.0274 | 0.0259 | – | 0.349 | 0.222 | 0.211 | – | –
14 | C=CCn1cc(C(=O)NC(=O)NCCCCCOC(=O)CCCCCCCCCCC(=O)OCCCCCNC(=O)NC(=O)c2cn(CC=C)c(=O)n(C)c2=O)c(=O)n(C)c1=O | > 100 µM | > 100 | > 100 µM | > 100 µM | > 100 µM | > 100 µM | > 100 | > 100 | > 100 µM | – | – | – | – | – | – | – | – | – | – | –
